# Laboratory results from patent US20090148512A1, “NOVEL USES OF CHLORAMPHENICOL AND ANALOGOUS THEREOF” (LANNETT CO INC, priority 2007, published 2009).
# Where two headings read alike, the source gives them in different places.
# How the values were obtained:
# [1] = test system: susceptible Staphylococcus aureus (MSSA); assay: In vitro activity (MIC) against susceptible Staphylococcus aureus (MSSA) strains collected in 2005; type: cell-based; details: for % resistance / % susceptible: CLSI (2007) criteria
# MRSA = assay: In vitro activity (MIC) against MRSA strains collected in 2005; type: cell-based, Staphylococcus aureus; details: for % resistance / % susceptible: CLSI (2007) criteria
# C. difficle = assay: In vitro activity (MIC) against 25 clinical strains of C. difficile; type: cell-based; details: for MIC50 / MIC90: Clostridioides difficile
# [2] = North America 2005, 1,232 strains
# [3] = North America and Europe 2005, 2,276 strains
# [4] = Staphylococcus aureus, MSSA, North America and Europe 2005, 2,276 strains, read-out: MIC50
# [5] = Staphylococcus aureus, MSSA, North America and Europe 2005, 2,276 strains, read-out: MIC90
# [6] = North America 2005, 1,158 strains
# [7] = North America and Europe 2005, 1,644 strains
# [8] = Staphylococcus aureus, MRSA, North America and Europe 2005, 1,644 strains, read-out: MIC50
# [9] = Staphylococcus aureus, MRSA, North America and Europe 2005, 1,644 strains, read-out: MIC90
# [10] = Staphylococcus aureus, MRSA, North America 2005, 1,158 strains, read-out: MIC90
MIC90 (MRSA; [10]),SMILES,"MIC50 ([1]; Europe 2005, 1,044 strains)","MIC90 ([1]; Europe 2005, 1,044 strains)","% resistance ([1]; Europe 2005, 1,044 strains)","% susceptible ([1]; Europe 2005, 1,044 strains)","MIC50 [1, 2]","MIC90 [1, 2]","% resistance [1, 2]","% susceptible [1, 2]","% resistance [1, 3]","% susceptible [1, 3]","MIC50 [1, 4]","MIC90 [1, 5]",MIC50 (MRSA; [6]),% resistance (MRSA; [6]),% susceptible (MRSA; [6]),% resistance (MRSA; [7]),% susceptible (MRSA; [7]),MIC50 (MRSA; [8]),MIC90 (MRSA; [9]),also measured
–,CN[C@H](CC(C)C)C(=O)N[C@H]1C(=O)N[C@@H](CC(N)=O)C(=O)N[C@H]2C(=O)N[C@H]3C(=O)N[C@H](C(=O)N[C@H](C(=O)O)c4cc(O)cc(O)c4-c4cc3ccc4O)[C@H](O)c3ccc(c(Cl)c3)Oc3cc2cc(c3O[C@@H]2O[C@H](CO)[C@@H](O)[C@H](O)[C@H]2O[C@H]2C[C@](C)(N)[C@H](O)[C@H](C)O2)Oc2ccc(cc2Cl)[C@H]1O [Vancomycin],1 µg/mL,1 µg/mL,0.0%,100%,1 µg/mL,1 µg/mL,0.0%,100%,0.0%,100%,1 µg/mL,1 µg/mL,1 µg/mL,0.0%,100%,0.0%,100%,1 µg/mL,1 µg/mL,"Range (MIC) ([1]; Europe 2005, 1,044 strains): ≦0.12-2; Range (MIC) [1, 2]: ≦0.25-2; Range (MIC) [1, 3]: ≦0.12-2; MIC90 (MRSA; [6]): 1 µg/mL"
> 2 µg/mL,CCC[C@@H]1C[C@@H](C(=O)N[C@@H]([C@H]2O[C@H](SC)[C@H](O)[C@@H](O)[C@H]2O)[C@H](C)Cl)N(C)C1 [Clindamycin],≦0.25 μg/ml,≦0.25 μg/ml,3.2%,96.6%,≦0.25 μg/ml,≦0.25 μg/ml,4.8%,95.0%,4.0%,95.7%,≤ 0.25 µg/mL,≤ 0.25 µg/mL,≦0.25 μg/ml,44.3%,55.5%,45.3%,54.6%,≤ 0.25 µg/mL,> 2 µg/mL,–
> 8 µg/mL,CC[C@H]1OC(=O)[C@H](C)[C@@H](O[C@H]2C[C@@](C)(OC)[C@@H](O)[C@H](C)O2)[C@H](C)[C@@H](O[C@@H]2O[C@H](C)C[C@H](N(C)C)[C@H]2O)[C@](C)(O)C[C@@H](C)C(=O)[C@H](C)[C@@H](O)[C@]1(C)O [Erythromycin],–,>8 µg/mL,13.3%,86.2%,–,>8 µg/mL,28.0%,70.8%,21.3%,77.9%,–,> 8 µg/mL,>8 µg/mL,94.8%,4.8%,89.2%,10.2%,> 8 µg/mL,> 8 µg/mL,–
–,Cc1ncc([N+](=O)[O-])n1CCO [Metronidazole],–,–,–,–,–,–,–,–,–,–,–,–,–,–,–,–,–,–,–,% resistant (C. difficle; 25 clinical strains): 00%; % susceptible (C. difficle; 25 clinical strains): 100%; MIC50 (C. difficle): 0.25 µM; MIC90 (C. difficle): 0.5 µM
> 4 µg/mL,C[C@H]1COc2c(N3CCN(C)CC3)c(F)cc3c(=O)c(C(=O)O)cn1c23 [Levofloxacin],≦0.5 μg/ml,≦0.5 μg/ml,6.8%,93.0%,≦0.5 μg/ml,≦0.5 μg/ml,6.6%,93.0%,6.7%,93.0%,≤ 0.5 µg/mL,≤ 0.5 µg/mL,>4 µg/mL,71.7%,26.4%,77.4%,20.6%,> 4 µg/mL,> 4 µg/mL,–

SMILES,MIC90 (MRSA; [10]),"MIC50 ([1]; Europe 2005, 1,044 strains)","MIC90 ([1]; Europe 2005, 1,044 strains)","% resistance ([1]; Europe 2005, 1,044 strains)","% susceptible ([1]; Europe 2005, 1,044 strains)","MIC50 [1, 2]","MIC90 [1, 2]","% resistance [1, 2]","% susceptible [1, 2]","% resistance [1, 3]","% susceptible [1, 3]","MIC50 [1, 4]","MIC90 [1, 5]",MIC50 (MRSA; [6]),% resistance (MRSA; [6]),% susceptible (MRSA; [6]),% resistance (MRSA; [7]),% susceptible (MRSA; [7]),MIC50 (MRSA; [8]),MIC90 (MRSA; [9]),also measured
CN(C)[C@@H]1C(O)=C(C(N)=O)C(=O)[C@@]2(O)C(O)=C3C(=O)c4c(O)cccc4[C@@](C)(O)[C@H]3C[C@@H]12 [Tetracycline],≤ 2 µg/mL,≦2 μg/ml,≦2 μg/ml,6.5%,93.3%,≦2 μg/ml,≦2 μg/ml,2.7%,96.8%,4.4%,95.2%,≤ 2 µg/mL,≤ 2 µg/mL,≦2 μg/ml,7.0%,92.5%,10.3%,88.8%,≤ 2 µg/mL,> 8 µg/mL,–
"O=C(N[C@H](CO)[C@H](O)c1ccc([N+](=O)[O-])cc1)C(Cl)Cl [chloramphenicol, Chloramphenicol]",8 µg/mL,8 µg/mL,8 µg/mL,1.4%,98.4%,8 µg/mL,8 µg/mL,0.0%,99.4%,0.7%,98.9%,8 µg/mL,8 µg/mL,8 µg/mL,0.4%,92.3%,1.9%,91.5%,8 µg/mL,8 µg/mL,"% resistant (C. difficle; 25 clinical strains): 8.0%; % susceptible (C. difficle; 25 clinical strains): 88.0%; MIC50 (C. difficle; 25 clinical strains, read-out: MIC50): 4 µM; MIC90 (C. difficle; 25 clinical strains, read-out: MIC90): 16 µM"
